Several values for one entry are separate records, joined by “and”; a condition that tells them apart may be missing. Identical values can stand only once.
How the values were obtained:
[1] = test system: unilateral ACLT model of OA; conditions: four weeks following ACLT surgery, previous work (Boyan et al.); cited from earlier work
[2] = test system: IL-1β stimulated increases in MMP-13, PGE2, and NO; conditions: cited from earlier work
[3] = test system: unilateral ACLT model of OA in Sprague Dawley rats; experiment: Mild model of OA: unilateral ACLT, weekly intra-articular 24R,25 injections; format: in vivo, rat
Description: A total of 54 skeletally mature male Sprague-Dawley rats (Envigo, Indianapolis, IN), 9-10 weeks of age, weighing 250-300 g at the study onset, were used for these experiments. All animal procedures were performed according to the National Research Council's Guide for the Care and Use of Laboratory Animals guidelines and approved by Virginia Commonwealth University's Institutional Animal Care and Use Committee. All rats were given ad libitum access to standard pellet and water. Based on a previous study (Scott, supra) using a 30% effect size, 20% variance, and a power of 80%, a two-tail analysis indicated an n=8 per group was necessary to yield statistical significance.
The unilateral ACLT study initially included 45 rats. Each treatment group had n=8 plus 1 extra animal in case of morbidity or mortality. Three rats died resulting in a total of 42 rats in the study. Rats were sedated with 2-4% isoflurane anesthesia in 400 mL/min 02 to effect. Unilateral anterior cruciate ligament transections (ACLT, animals=45) were performed by medially translocating the patellar tendon in order to visualize and transect the ACL to create a […] model of OA. Left legs served at contralateral controls (c-control) while right legs received either […] of vehicle injections or 4×10^−7 M 24R,25(OH)2D3 (24R,2S) injections once a week. Eighteen rats were used to examine a 5-week prophylactic treatment duration while another eighteen rats were used to examine a 10-week prophylactic treatment duration. […] However, 3 animals died in this study resulting in an n=8 for the ACLT rats, for the 5-week vehicle (5W-Veh) treated rats, and the 10-week 24R,25 (10W-24R,25) treated rats. Animals were killed after 70 days. Hind-limbs were collected and micro-CT and histological analyses were performed. […]
The articular cartilage area, fibrotic area, and percent healthy subchondral bone were measured using Zen 2012 Blue Edition software. For the unilateral ACLT study: the articular cartilage area was measured on 2-3 slides per sample and the average area for each sample was reported for medial tibias. […]

[4] = test system: bilateral ACLT model of OA in Sprague Dawley rats; experiment: Severe model of OA: bilateral ACLT, weekly intra-articular 24R,25 injections; format: in vivo, rat; conditions: 10 weeks
Description: The second study created a more severe model of OA by performing bilateral ACLTs, using the experimental design shown in FIG. 2B. Treatment groups had n=8 plus 1 extra animal in case of morbidity or mortality. Nine animals were sedated using 2-4% isoflurane anesthesia in 400 mL/min O2 to effect. Bilateral anterior cruciate ligament transections were performed by medially translocating the patellar tendon in order to visualize and transect the ACL. Left legs received vehicle injections and right legs received 24R,25 injections once weekly using the same injection regimen outlined for the previous study. Animals were killed 70 days post-ACLT, and serum and hind-limbs were collected.
24R,25(OH)2D3 was obtained from Enzo Life Sciences (Plymouth Meeting, PA) and dissolved in ethanol at a stock concentration of 10^−4 M in accordance with a previously established protocol (see Boyan et al. PLoS One. 2016; 11(8):e0161782). 40 μL of stock 24R,25 was dissolved in 10 mL sterile 1×PBS to create a final treatment concentration of 4×10^−7 M 24R,25. All animals received injections of 25 μL of 4×10^−7 M 24R,25 in right legs or vehicle (40 μL ethanol dissolved in sterile 1×PBS to a final concentration of 0.4%) in left legs once a week for 70 days based on a previously established protocol (see Boyan et al., supra).
Samples were decalcified for 7 days using Decal™ (StatLab Medical Products, Mckinney, TX), rinsed in running DI water for 15 mins, dehydrated in a series of 70-100% ethanol and xylene washes, and embedded with Richard-Allan Scientific Histoplast Paraffin (VWR, Radnor, PA). 5 μm sections were cut every 100-200 μm throughout the joint using a manual microtome (Shandon Finesse 325, Thermo Scientific) and stained using hematoxylin and eosin (H&E), toluidine blue, or Masson's trichrome. Samples were imaged using Zen 2012 Blue Edition software with an AxioCam MRc5 camera and Axio Observer Z.1 microscope (Carl Zeiss Microscopy, Oberkochen, Germany).
The articular cartilage area, fibrotic area, and percent healthy subchondral bone were measured using Zen 2012 Blue Edition software. For the unilateral ACLT study: the articular cartilage area was measured on 2-3 slides per sample and the average area for each sample was reported for medial tibias. […] For the bilateral ACLT study, articular cartilage area, fibrotic area, and the percent healthy subchondral bone were measured on one slide per sample for medial femurs. The subchondral bone plate was measured and subdivided into healthy regions (normal cartilage above) and unhealthy regions (subchondral bone remodeling and osteophyte formation, cartilage erosion/delamination). The percent healthy subchondral bone was reported as healthy subchondral bone divided by total subchondral bone*100.
Two blinded reviewers scored histological samples and assigned a grade (0-6.5) to assess OA depth progression into the cartilage and a stage (0-4) to assess the horizontal extent of cartilage involvement along the articulating surface according to the OARSI scoring system guidelines (see Pritzker et al. Osteoarthritis Cartilage. 2006 January; 14(1):13-29). The grade and stage were multiplied together to obtain the OARSI score. The higher the score, the more severe OA present, with a max possible score of 26. […]
Data are represented as mean±standard error. […] Blood serum of day 0 vs day 70 was analyzed used a two-tailed paired t-test using an alpha=0.05. […]

[5] = test system: destabilization of the medial meniscus model of OA; conditions: destabilization of the medial meniscus model of OA in mice; literature; cited from earlier work
[6] = test system: rat articular chondrocytes (rArCs); experiment: WNT/β-catenin agonist or antagonist treatment of rArCs with or without IL-1β; format: cell-based; conditions: compound alone (LiCl 5 mM and 10 mM; XAV 0.5, 1 μM)
[7] = test system: rat articular chondrocytes (rArCs); experiment: WNT/β-catenin agonist or antagonist treatment of rArCs with or without TNF-α; format: cell-based; conditions: compound plus 10 ng/mL TNF-α
[8] = 10W 24R,25 vs 10W-Veh vs ACLT alone
[9] = bilateral ACLT, 24R,25 vs vehicle limbs

C=C1CC[C@H](O)C/C1=C/C=C1\CCC[C@]2(C)[C@@H]([C@H](C)CC[C@@H](O)C(C)(C)O)CC[C@@H]12 [24R,25, 24R,25-Dihydroxyvitamin D3]
OA progression [1]: mitigated OA progression
IL-1β stimulated increases in MMP-13, PGE2, and NO [2]: able to prevent
cartilage area by histomorphometric analysis, medial tibias [3, 8]: no difference in cartilage area
micro-CT cartilage volume, medial and lateral tibia [3, 8]: no difference in cartilage volume between groups
mean OARSI score, medial tibias ([3]; unilateral ACLT, 4×10^−7 M 24R,25 once a week for 10 weeks, day 70, max possible score 26): 5.11
OARSI score (average) ([4]; bilateral ACLT, 24R,25 once weekly, day 70): 16.61 and 15
articular cartilage area, medial femurs (histomorphometric analysis) ([4]; bilateral ACLT, 24R,25 right legs vs vehicle left legs, once weekly): significantly less articular cartilage area compared to vehicle limbs
fibrotic area, medial femurs [4, 9]: equivalent amount
percent healthy subchondral bone, medial femurs [4, 9]: equivalent amount
mitigation of OA progression / OA severity ([4]; severe (bilateral ACLT) model): did not provide evidence of mitigation of OA progression

Oc1nc(-c2ccc(C(F)(F)F)cc2)nc2c1CSCC2 [XAV, XAV-939]
cartilage degradation [5]: reduced cartilage degradation
total DNA [6]: this was not seen
total DNA [7]: decrease in total DNA

— patent US20230407304A1, “USE OF MICRORNA INHIBITION TO PREVENT AND TREAT OSTEOARTHRITIS AND OTHER INFLAMMATORY DISEASES” (VIRGINIA COMMONWEALTH UNIVERSITY, priority 2020, published 2023)
